# Test results taken from publication PMC12631002, “Bioactivity Profiles of Progressively Ring‐Fluorinated Cyclohexyl Motifs in the WKYMVm Peptide as Formylpeptide FPR2 Agonists and in Keto‐Piperazines as Antitrypanosome Agents” (Chembiochem, 2025).
# Where two headings read alike, the source gives them in different places. Numbered stars: 1 amine (or outer) side, 2 acyl side, 3 side chain; on linkers, the order of the positions; unused ones are H or OH. Square brackets hold non-standard residues; d marks the D form. Ends that are not written are not given here. Peptide text beside a SMILES is read from it. X3 = O=C([C@H](C[C@@H]1[C@H](F)C[C@H](F)C[C@@H]1F)N[*:1])[*:2]; X2 = O=C([C@H](C[C@@H]1C[C@H](F)C[C@H](F)C1)N[*:1])[*:2]; X1 = O=C([C@H](C[C@H]1CC[C@@H](F)CC1)N[*:1])[*:2]; Phe(F5) = N[C@@H](Cc1c(F)c(F)c(F)c(F)c1F)C(=O)O; Phe(4-F) = N[C@@H](Cc1ccc(F)cc1)C(=O)O
# B1: W-peptide analog 25 (pentafluoroaryl phenylalanine in place of Tyr3 of WKYMVm) (peptide)
# peptide: WK[Phe(F5)]MV[dM]-NH2
# modifications: N-terminus assumed
# SMILES: CSCC[C@H](NC(=O)[C@H](Cc1c(F)c(F)c(F)c(F)c1F)NC(=O)[C@H](CCCCN)NC(=O)[C@@H](N)Cc1c[nH]c2ccccc12)C(=O)N[C@H](C(=O)N[C@H](CCSC)C(N)=O)C(C)C
# notes: last residue D-methionine; also called pentafluoroaryl motif; source: synthetic peptide (microwave-assisted SPPS, preparative HPLC)
# B2: W-peptide analog 24 (4-fluorophenylalanine in place of Tyr3 of WKYMVm) (peptide)
# peptide: WK[Phe(4-F)]MV[dM]-NH2
# modifications: N-terminus assumed
# SMILES: CSCC[C@H](NC(=O)[C@H](Cc1ccc(F)cc1)NC(=O)[C@H](CCCCN)NC(=O)[C@@H](N)Cc1c[nH]c2ccccc12)C(=O)N[C@H](C(=O)N[C@H](CCSC)C(N)=O)C(C)C
# notes: last residue D-methionine; also called 4-fluorophenyl-modified peptide 24; 4-fluorophenylalanine analog 24; source: synthetic peptide (microwave-assisted SPPS, preparative HPLC)
# How the values were obtained:
# FPR2 [1] = biological target: T1, FPR2 (Homo sapiens, UniProt P25090); test: Competition binding against K(5/6-FAM)-WKYMVm, flow cytometry; set-up: FLAG (N); expressed in transfected cells; settings: for IC50: binding affinity (order of magnitude), order of magnitude
# T1 sequence (P25090 1-351): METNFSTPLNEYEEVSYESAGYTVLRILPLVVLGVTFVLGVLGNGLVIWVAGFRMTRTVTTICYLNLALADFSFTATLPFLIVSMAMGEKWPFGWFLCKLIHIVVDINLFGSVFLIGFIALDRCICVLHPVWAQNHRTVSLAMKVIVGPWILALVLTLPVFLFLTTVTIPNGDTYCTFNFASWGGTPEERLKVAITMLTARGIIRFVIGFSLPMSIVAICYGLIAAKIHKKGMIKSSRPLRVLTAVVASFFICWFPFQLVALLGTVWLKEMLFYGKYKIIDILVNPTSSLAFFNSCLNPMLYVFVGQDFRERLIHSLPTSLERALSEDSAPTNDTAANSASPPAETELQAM
# Method: Subsequently, mean fluorescence was measured using flow cytometry (Attune NxT). Data was expressed as a percentage of the maximum binding (i.e., no competitor) and errors were determined as a result of three independent experiments performed in duplicate (Figure 5 ).
# Cell Culture and Transfection: Constructs were either transiently or stably expressed in native Human Embryonic Kidney 293 (HEK293) cells and maintained in DMEM containing 10% FCS. Transfections were performed using PEI at a ratio of DNA:PEI of 1:4 for all studies. […]
# Competition Binding: Competition binding was performed using a fluorescently labelling ligand using an assay analogous to the classical radiolabelled method.[1] Briefly, human embryonic kidney 293 (HEK293) cells stably expressing human Formyl […]
# and incubated for 90 min on ice in the dark to allow equilibrium binding. Subsequently, mean fluorescence was measured by flow cytometry using the Attune NxT. Data was expressed as a percentage of maximum binding (i.e. no competitor) and analysed via nonlinear regression one site model of equilibrium. IC50 values were determined using GraphPad PRISM software.
# T. brucei [2] = test: Trypanocidal activity against growing cells; assay type: cell-based, Trypanosoma brucei; settings: for EC50: Trypanosoma brucei
# Source text: (§1) Accordingly N‐Boc amino acid esters 20a–d were hydrolyzed to their free carboxylic acids 25a–d and then progressed in each case to the corresponding Weinreb–Nahm amides^[ [33] ^] 26a–d. N‐Boc deprotection followed by coupling to N‐Boc‐tryptophan generated dipeptides 27a–d as the required precursors for cyclization. The intramolecular Pictet–Spengler condensations, followed a previous protocol^[ [19] ^] and 4‐monofluoro 28a, 3,5‐difluoro‐ 28b, and 2,3,4,5,6‐pentafluoro‐ 28d keto‐piperazines could be prepared following this method. It is noteworthy that the pentafluoro‐ analog was accompanied by what appeared to be a high level of defluorinated side products, however 28d was conveniently purified by HPLC rather than column chromatography. […] Thus, 4‐monofluoro‐ 28a, 3,5‐difluoro‐ 28b, and 2,3,4,5,6‐pentafluoro‐ 28d cyclohexyl‐amino acid tryptophan diketopiperazines were prepared and explored in antitrypanosomal assays. Given the importance of molecular lipophilicity in the context of medicinal chemistry, a Log P assessment (HPLC) was made of the diketopiperazines products 28a, 28b, and 28d as illustrated in Table 1 . As anticipated, there is an increase in polarity (LogP reduction) as the number of fluorines increases. We also know from previous work[[6b]] that the Ph ring is more polar than cyclohexane but less polar than the progressively fluorinated cyclohexane rings. The keto‐piperazines 28a, 28b, and 28d were assayed^[ [20] ^] against growing cells of T. brucei and T. cruzi, as well as the human cell line, HeLa and the data is presented in Table 1.
# Bioactivities assays of Janus face Tryptophan
# Parasites were grown in different medium (e.g. T. brucei was grown in HMI-11 medium) with 10% heat-inactivated foetal bovine serum. parasites were counted using CASY TT Cell Counter. Fluorescence was recorded using a FLx 800 plate reader (BioTek) with an excitation wavelength 530–535 nm and emission wavelength of 590–610 nm using Gen5 Reader Control 2.0 Software (BioTek). EC50 values were determined using a 4-parameter non-linear logistic regression equation using GraFit 5.0 (Erithacus Software). SD values were calculated based on curve fitting to n biological replicates performed in parallel.
# Log P assessment (HPLC) = assay type: physicochemical
# Source text: as §1
# FPR2 [3] = biological target: T2, FPR2 (Homo sapiens, UniProt P25090); test: BRET analysis of β-arrestin 2 recruitment; assay type: cell-based; settings: HEK293, FPR2-Rluc8 + β-arrestin 2-YFP, 37 °C
# T2 construct: expressed in transfected cells; host or cells: HEK293, transient transfection
# Method: (§2) Since these modifications of WKYMVm altered the relative affinity of the compounds to bind to FPR2, a further series of bioluminescence resonance energy transfer (BRET) assays were conducted to determine if there was any change in efficacy, specifically the ability to recruit molecular effectors such as G‐protein or β‐arrestin.^[ [28], [29] ^] Briefly, HEK293 cells were transiently transfected with FPR2‐Rluc8 (donor) in combination with and either mGsi‐Venus or β‐arrestin 2‐YFP (acceptors) and replated after 24 h into white opaque 96‐well plates. Cells were assayed 24 h later at 37 °C, in HEPES‐buffered saline solution (HBSS) with coelenterazine H (5 μM). Cells were then stimulated with increasing concentrations of WKYMVm or analogs. Luminescence and fluorescence values were measured at 460/30 nm (FPR2) and […] (mini‐Gsi or β‐arrestin protein), respectively, and the acceptor: donor ratio was determined, normalized by subtraction of the ratio observed in untreated cells (Figure 7 ). […]
# (§3) BRET analysis of β-Arrestin and mini-Gsi recruitment: HEK293 cells were grown on 6 well plates until 90-95% confluency was reached. […] Cells were then stimulated with increasing concentrations of WKYMVm and analysed using ClarioStar Plus plate reader (BMG Labtech) at 10 minutes post agonist addition. […]
# T2 sequence (P32121 whole entry partner, one chain of several): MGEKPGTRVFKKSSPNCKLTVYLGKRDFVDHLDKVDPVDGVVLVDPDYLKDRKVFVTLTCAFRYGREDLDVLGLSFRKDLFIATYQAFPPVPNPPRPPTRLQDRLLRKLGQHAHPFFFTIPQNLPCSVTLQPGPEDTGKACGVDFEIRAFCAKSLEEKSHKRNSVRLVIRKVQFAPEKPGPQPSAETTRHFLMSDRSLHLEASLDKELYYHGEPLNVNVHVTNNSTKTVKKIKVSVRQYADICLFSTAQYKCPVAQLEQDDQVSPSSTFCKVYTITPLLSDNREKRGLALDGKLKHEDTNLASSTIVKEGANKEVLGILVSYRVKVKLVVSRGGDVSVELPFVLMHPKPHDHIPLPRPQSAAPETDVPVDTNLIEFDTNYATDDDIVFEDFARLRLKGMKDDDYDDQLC
# FPR2 [4] = biological target: T1, FPR2; test: BRET analysis of mini-Gsi recruitment; assay type: cell-based; set-up: expressed in transfected cells; host or cells: HEK293, transient transfection; settings: HEK293, FPR2-Rluc8 + mGsi-Venus, 37 °C
# Method: as §2, §3
# [5] = set-up: method as in PMID 29732086; settings: ref 6a; cited from earlier work
# T. brucei [6] = system: T. brucei; set-up: method as in PMID 34927802; settings: previously reported; cited from earlier work
# [7] = biological target: T3, formyl-peptide receptor type 2 (FPR2), on HEK293 cells (human, UniProt P25090 1-351); test: FACS; competition with K(5/6-FAM)-WKYMVm; printed as Log IC50 -5.33
# T3 chain: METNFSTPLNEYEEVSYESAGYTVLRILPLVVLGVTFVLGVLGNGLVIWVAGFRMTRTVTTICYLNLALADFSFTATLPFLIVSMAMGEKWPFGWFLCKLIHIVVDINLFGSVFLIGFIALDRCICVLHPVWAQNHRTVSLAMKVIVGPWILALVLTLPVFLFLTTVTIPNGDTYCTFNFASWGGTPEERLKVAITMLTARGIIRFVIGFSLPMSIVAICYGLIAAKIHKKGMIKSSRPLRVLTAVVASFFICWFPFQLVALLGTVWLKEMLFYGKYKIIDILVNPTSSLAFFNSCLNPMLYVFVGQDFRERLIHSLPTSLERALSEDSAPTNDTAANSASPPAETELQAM
# [8] = biological target: T3, formyl-peptide receptor type 2 (FPR2), …; test: FACS; competition with K(5/6-FAM)-WKYMVm; printed as Log IC50 -6.29
# [9] = biological target: T3, formyl-peptide receptor type 2 (FPR2), …; test: FACS; competition with K(5/6-FAM)-WKYMVm; printed as Log IC50 -7.24
# [10] = biological target: T3, formyl-peptide receptor type 2 (FPR2), …; test: FACS; competition with K(5/6-FAM)-WKYMVm; printed as Log IC50 -5.80
molecule,measurement,setting,value
CSCC[C@H](NC(=O)[C@H](Cc1c(F)c(F)c(F)c(F)c1F)NC(=O)[C@H](CCCCN)NC(=O)[C@@H](N)Cc1c[nH]c2ccccc12)C(=O)N[C@H](C(=O)N[C@H](CCSC)C(N)=O)C(C)C [compound 25] (H-WK[Phe(F5)]MV[dM]-NH2),IC50,FPR2 [1],~1000 nM
O=C1NC(CC2C(F)C(F)C(F)C(F)C2F)C2NC1Cc1c2[nH]c2ccccc12 (stereo not drawn) [28d],EC50,T. brucei [2],22000 ± 2120 nM
same,trypanocidal activity against T. brucei,T. brucei [2]; comparison within series and with 29,least active compound
same,chromatographic logP,Log P assessment (HPLC),2.58
CSCC[C@H](NC(=O)[C@H](C[C@H]1CC[C@@H](F)CC1)NC(=O)[C@H](CCCCN)NC(=O)[C@@H](N)Cc1c[nH]c2ccccc12)C(=O)N[C@H](C(=O)N[C@H](CCSC)C(N)=O)C(C)C [23a] (H-WK[X1]MV[dM]-NH2; N-terminus assumed),efficacy of β-arrestin recruitment,FPR2 [3],comparable efficacy
same,relative binding affinity,FPR2 [1]; comparison within the peptide series,highest affinity but significantly weaker than that of the WKYMVm 13
same,efficacy of Gi (mini-Gsi) recruitment,FPR2 [4],comparable efficacy
CSCC[C@H](NC(=O)[C@H](C[C@@H]1C[C@H](F)C[C@H](F)C1)NC(=O)[C@H](CCCCN)NC(=O)[C@@H](N)Cc1c[nH]c2ccccc12)C(=O)N[C@H](C(=O)N[C@H](CCSC)C(N)=O)C(C)C [23b] (H-WK[X2]MV[dM]-NH2),IC50,FPR2 [1],~100 nM
COC(=O)C=CC(CC1CCNC1=O)NC(=O)C(CC1C(F)C(F)C(F)C(F)C1F)NC(=O)C=Cc1ccccc1 (stereo not drawn) [compound 9],Log P,[5],1.21
CSCC[C@H](NC(=O)[C@H](C[C@@H]1[C@H](F)C[C@H](F)C[C@@H]1F)NC(=O)[C@H](CCCCN)NC(=O)[C@@H](N)Cc1c[nH]c2ccccc12)C(=O)N[C@H](C(=O)N[C@H](CCSC)C(N)=O)C(C)C [23c] (H-WK[X3]MV[dM]-NH2),IC50,FPR2 [1],~1000 nM
"CSCC[C@H](NC(=O)[C@H](Cc1ccc(O)cc1)NC(=O)[C@H](CCCCN)NC(=O)[C@@H](N)Cc1c[nH]c2ccccc12)C(=O)N[C@H](C(=O)N[C@H](CCSC)C(N)=O)C(C)C [compound 13, Trp‐Lys‐Tyr‐Met‐Val‐D‐Met‐NH2, reference compound]",efficacy of β-arrestin recruitment,FPR2 [3],most efficacious
same,efficacy of Gi (mini-Gsi) recruitment,FPR2 [4],most efficacious
O=CC(CC1CCNC1=O)NC(=O)C(CC1C(F)C(F)C(F)C(F)C1F)NC(=O)c1cc2ccccc2[nH]1 (stereo not drawn) [compound 8],Log P,[5],0.69
O=C1NC(Cc2ccccc2)C2NC1Cc1c2[nH]c2ccccc12 (stereo not drawn) [compound 29],EC50,T. brucei [6],52100 ± 3500 nM
O=C1NC(CC2CC(F)CC(F)C2)C2NC1Cc1c2[nH]c2ccccc12 (stereo not drawn) [28b],EC50,T. brucei [2],11300 ± 730 nM
same,chromatographic logP,Log P assessment (HPLC),2.92
CSCC[C@H](NC(=O)[C@H](Cc1ccc(F)cc1)NC(=O)[C@H](CCCCN)NC(=O)[C@@H](N)Cc1c[nH]c2ccccc12)C(=O)N[C@H](C(=O)N[C@H](CCSC)C(N)=O)C(C)C [compound 24] (H-WK[Phe(4-F)]MV[dM]-NH2),IC50,FPR2 [1],~100 nM
WK[all‑cis pentafluorocyclohexylalanine]MV[dM]-NH2 [W-peptide analog 23d (all-cis pentafluorocyclohexylalanine in place of Tyr3 of WKYMVm)],IC50,[7],4680 nM
B1,IC50,[8],513 nM
B2,IC50,[9],57.5 nM
WK[all‑cis trifluorocyclohexylalanine]MV[dM]-NH2 [W-peptide analog 23c (all-cis trifluorocyclohexylalanine in place of Tyr3 of WKYMVm)],IC50,[10],1580 nM
